From patent publication US20240307353A1, “JAK1 PATHWAY INHIBITORS FOR THE TREATMENT OF ASTHMA” (Incyte Corporation, priority 2023, published 2024)

Assays:
[1] = target: human JAK1 (a.a. 837-1142) (Homo sapiens, UniProt P23458); test: In vitro JAK kinase assay (HTRF), JAK1; type: biochemical; details: 1 mM ATP
Method: (§1) The catalytic activity of JAK1, JAK2 or JAK3 was assayed by measuring the phosphorylation of a biotinylated peptide. The phosphorylated peptide was detected by homogenous time resolved fluorescence (HTRF). […] Reactions were carried out at room temperature for 1 hour and then stopped with 20 μL 45 mM EDTA, 300 nM SA-APC, 6 nM Eu-Py20 in assay buffer (Perkin Elmer, Boston, MA). Binding to the Europium labeled antibody took place for 40 minutes and HTRF signal was measured on a Fusion plate reader (Perkin Elmer, Boston, MA).

[2] = target: JAK2 (a.a. 828-1132) (Homo sapiens (Human), UniProt O60674); test: In vitro JAK kinase assay (HTRF), JAK2 versus JAK1; type: biochemical; details: IC50 ratio, 1 mM ATP
Chain of JAK2 (a.a. 828-1132) (O60674 828-1132): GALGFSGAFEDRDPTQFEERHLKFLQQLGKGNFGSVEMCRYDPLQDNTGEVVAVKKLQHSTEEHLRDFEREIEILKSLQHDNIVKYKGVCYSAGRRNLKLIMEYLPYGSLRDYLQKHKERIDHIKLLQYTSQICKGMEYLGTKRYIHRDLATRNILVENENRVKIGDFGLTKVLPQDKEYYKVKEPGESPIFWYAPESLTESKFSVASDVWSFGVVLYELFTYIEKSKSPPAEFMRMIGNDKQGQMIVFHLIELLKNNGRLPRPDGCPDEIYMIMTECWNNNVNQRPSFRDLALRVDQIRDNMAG
Method: as §1

Compound | IC50 [1] | JAK2/JAK1 [2]
C[C@@H](O)c1nc2cnc3ccsc3c2n1[C@H]1CC[C@H](CC#N)OC1 [Compound 5, ((2R,5S)-5-{2-[(1R)-1-hydroxyethyl]-1H-imidazo[4,5-d]thieno[3,2-b]pyridin-1-yl}tetrahydro-2H-pyran-2-yl)acetonitrile] | < 100 nM | >10
N#CC[C@]1(n2cc(-c3ncnc4[nH]ccc34)cn2)C[C@H](N2CCC(Oc3cc(CN4CCC[C@H]4CO)cc(C(F)(F)F)n3)CC2)C1 [Compound 12, {trans-3-(4-{[4-{[(2S)-2-(hydroxymethyl)pyrrolidin-1-yl]methyl}-6-(trifluoromethyl)pyridin-2-yl]oxy}piperidin-1-yl)-1-[4-(7H-pyrrolo[2,3-d]pyrimidin-4-yl)-1H-pyrazol-1-yl]cyclobutyl}acetonitrile] | < 10 nM | >10
N#CC[C@]1(n2cc(-c3ncnc4[nH]ccc34)cn2)C[C@H](N2CCC(Oc3cc(CN4CCC[C@@H]4CO)cc(C(F)(F)F)n3)CC2)C1 [Compound 13, {trans-3-(4-{[4-{[(2R)-2-(hydroxymethyl)pyrrolidin-1-yl]methyl}-6-(trifluoromethyl)pyridin-2-yl]oxy}piperidin-1-yl)-1-[4-(7H-pyrrolo[2,3-d]pyrimidin-4-yl)-1H-pyrazol-1-yl]cyclobutyl}acetonitrile] | < 10 nM | >10
N#CCC1(n2cc(-c3ncnc4[nH]ccc34)cn2)CN([C@H]2CC[C@@H](Oc3cc(CCO)nc(C(F)(F)F)n3)CC2)C1 [Compound 18, {1-(cis-4-{[6-(2-hydroxyethyl)-2-(trifluoromethyl)pyrimidin-4-yl]oxy}cyclohexyl)-3-[4-(7H-pyrrolo[2,3-d]pyrimidin-4-yl)-1H-pyrazol-1-yl]azetidin-3-yl}acetonitrile] | < 10 nM | >10
CC(C)(O)c1cc(O[C@H]2CC[C@@H](N3CC(CC#N)(n4cc(-c5ncnc6[nH]ccc56)cn4)C3)CC2)nc(C(F)(F)F)c1 [Compound 20, {1-(cis-4-{[4-(1-hydroxy-1-methylethyl)-6-(trifluoromethyl)pyridin-2-yl]oxy}cyclohexyl)-3-[4-(7H-pyrrolo[2,3-d]pyrimidin-4-yl)-1H-pyrazol-1-yl]azetidin-3-yl}acetonitrile] | < 10 nM | >10
N#CCC1(n2cc(-c3ncnc4[nH]ccc34)cn2)CN([C@H]2CC[C@@H](Oc3cc(CN4CC[C@@H](O)C4)cc(C(F)(F)F)n3)CC2)C1 [Compound 21, {1-(cis-4-{[4-{[(3R)-3-hydroxypyrrolidin-1-yl]methyl}-6-(trifluoromethyl)pyridin-2-yl]oxy}cyclohexyl)-3-[4-(7H-pyrrolo[2,3-d]pyrimidin-4-yl)-1H-pyrazol-1-yl]azetidin-3-yl}acetonitrile] | < 10 nM | >10
N#CCC1(n2cc(-c3ncnc4[nH]ccc34)cn2)CN([C@H]2CC[C@@H](Oc3cc(CN4CC[C@H](O)C4)cc(C(F)(F)F)n3)CC2)C1 [Compound 22, {1-(cis-4-{[4-{[(3S)-3-hydroxypyrrolidin-1-yl]methyl}-6-(trifluoromethyl)pyridin-2-yl]oxy}cyclohexyl)-3-[4-(7H-pyrrolo[2,3-d]pyrimidin-4-yl)-1H-pyrazol-1-yl]azetidin-3-yl}acetonitrile] | < 10 nM | >10
C[C@@H](O)CNCc1cc(OC2CCN([C@H]3C[C@](CC#N)(n4cc(-c5ncnc6[nH]ccc56)cn4)C3)CC2)nc(C(F)(F)F)c1 [Compound 24, {trans-3-(4-{[4-({[(2R)-2-hydroxypropyl]amino}methyl)-6-(trifluoromethyl)pyridin-2-yl]oxy}piperidin-1-yl)-1-[4-(7H-pyrrolo[2,3-d]pyrimidin-4-yl)-1H-pyrazol-1-yl]cyclobutyl}acetonitrile] | < 10 nM | >10
C[C@H](O)CNCc1cc(OC2CCN([C@H]3C[C@](CC#N)(n4cc(-c5ncnc6[nH]ccc56)cn4)C3)CC2)nc(C(F)(F)F)c1 [Compound 25, {trans-3-(4-{[4-({[(2S)-2-hydroxypropyl]amino}methyl)-6-(trifluoromethyl)pyridin-2-yl]oxy}piperidin-1-yl)-1-[4-(7H-pyrrolo[2,3-d]pyrimidin-4-yl)-1H-pyrazol-1-yl]cyclobutyl}acetonitrile] | < 10 nM | >10

Other lines, results leading:

IC50 [1] | JAK2/JAK1 [2] | Compound
< 10 nM | >10 | N#CCC(C1CCN(c2cccc(Cl)n2)C1)n1cc(-c2ncnc3[nH]ccc23)cn1 (single isomer, unassigned) [Compound 6, 3-[1-(6-chloropyridin-2-yl)pyrrolidin-3-yl]-3-[4-(7H-pyrrolo[2,3-d]pyrimidin-4-yl)-1H-pyrazol-1-yl]propanenitrile]
< 10 nM | >10 | N#CCC1(n2cc(-c3ncnc4[nH]ccc34)cn2)CN(C2CCN(C(=O)Nc3ccc(F)cc3C(F)(F)F)CC2)C1 [Compound 2, 4-{3-(Cyanomethyl)-3-[4-(7H-pyrrolo[2,3-d]pyrimidin-4-yl)-1H-pyrazol-1-yl]azetidin-1-yl}-N-[4-fluoro-2-(trifluoromethyl)phenyl]piperidine-1-carboxamide]
< 10 nM | >10 | N#CCC1(n2cc(-c3ncnc4[nH]ccc34)cn2)CN(C2CCN(C(=O)c3ccnc(C(F)(F)F)n3)CC2)C1 [Compound 3, [3-[4-(7H-pyrrolo[2,3-d]pyrimidin-4-yl)-1H-pyrazol-1-yl]-1-(1-{[2-(trifluoromethyl)pyrimidin-4-yl]carbonyl}piperidin-4-yl)azetidin-3-yl]acetonitrile]
< 10 nM | >10 | N#CCC1(n2cc(-c3ncnc4[nH]ccc34)cn2)CN(C2CCN(C(=O)c3ccnc(C(F)(F)F)c3F)CC2)C1 [Compound 4, {1-{1-[3-Fluoro-2-(trifluoromethyl)isonicotinoyl]piperidin-4-yl}-3-[4-(7H-pyrrolo[2,3-d]pyrimidin-4-yl)-1H-pyrazol-1-yl]azetidin-3-yl}acetonitrile]
< 10 nM | >10 | N#CCC(C1CCN(c2nc3cccnc3o2)C1)n1cc(-c2ncnc3[nH]ccc23)cn1 (centres unmarked) [Compound 7, 3-(1-[1,3]oxazolo[5,4-b]pyridin-2-ylpyrrolidin-3-yl)-3-[4-(7H-pyrrolo[2,3-d]pyrimidin-4-yl)-1H-pyrazol-1-yl]propanenitrile]
< 10 nM | >10 | N#CCC(CN1CCN(C(=O)c2ccc(C#N)cc2F)CC1)n1cc(-c2ncnc3[nH]ccc23)cn1 (centres unmarked) [Compound 8, 4-[(4-{3-cyano-2-[4-(7H-pyrrolo[2,3-d]pyrimidin-4-yl)-1H-pyrazol-1-yl]propyl}piperazin-1-yl)carbonyl]-3-fluorobenzonitrile]
< 10 nM | >10 | N#CCC(CN1CCN(C(=O)c2ccc(C#N)cc2F)CC1)n1ccc(-c2ncnc3[nH]ccc23)c1 (centres unmarked) [Compound 9, 4-[(4-{3-cyano-2-[3-(7H-pyrrolo[2,3-d]pyrimidin-4-yl)-1H-pyrrol-1-yl]propyl}piperazin-1-yl)carbonyl]-3-fluorobenzonitrile]
< 10 nM | >10 | N#CC[C@]1(n2cc(-c3ncnc4[nH]ccc34)cn2)C[C@H](N2CCN(C(=O)c3ccnc(C(F)(F)F)n3)CC2)C1 [Compound 10, [trans-1-[4-(7H-pyrrolo[2,3-d]pyrimidin-4-yl)-1H-pyrazol-1-yl]-3-(4-{[2-(trifluoromethyl)pyrimidin-4-yl]carbonyl}piperazin-1-yl)cyclobutyl]acetonitrile]
< 10 nM | >10 | N#CC[C@]1(n2cc(-c3ncnc4[nH]ccc34)cn2)C[C@H](N2CCC(Oc3cc(CN4CC(O)C4)cc(C(F)(F)F)n3)CC2)C1 [Compound 11, {trans-3-(4-{[4-[(3-hydroxyazetidin-1-yl)methyl]-6-(trifluoromethyl)pyridin-2-yl]oxy}piperidin-1-yl)-1-[4-(7H-pyrrolo[2,3-d]pyrimidin-4-yl)-1H-pyrazol-1-yl]cyclobutyl}acetonitrile]
< 10 nM | >10 | C[C@H](NC(=O)c1cc(F)c(N2CC(CC#N)(n3cc(-c4ncnc5[nH]ccc45)cn3)C2)cc1F)C(F)(F)F [Compound 16, 4-{3-(cyanomethyl)-3-[4-(7H-pyrrolo[2,3-d]pyrimidin-4-yl)-1H-pyrazol-1-yl]azetidin-1-yl}-2,5-difluoro-N-[(1S)-2,2,2-trifluoro-1-methylethyl]benzamide]
< 10 nM | >10 | CCNCc1cc(O[C@H]2CC[C@@H](N3CC(CC#N)(n4cc(-c5ncnc6[nH]ccc56)cn4)C3)CC2)nc(C(F)(F)F)c1 [Compound 19, {1-(cis-4-{[4-[(ethylamino)methyl]-6-(trifluoromethyl)pyridin-2-yl]oxy}cyclohexyl)-3-[4-(7H-pyrrolo[2,3-d]pyrimidin-4-yl)-1H-pyrazol-1-yl]azetidin-3-yl}acetonitrile]
< 10 nM | >10 | C[C@@H](CO)NCc1cc(OC2CCN([C@H]3C[C@](CC#N)(n4cc(-c5ncnc6[nH]ccc56)cn4)C3)CC2)nc(C(F)(F)F)c1 [Compound 23, {trans-3-(4-{[4-({[(1S)-2-hydroxy-1-methylethyl]amino}methyl)-6-(trifluoromethyl)pyridin-2-yl]oxy}piperidin-1-yl)-1-[4-(7H-pyrrolo[2,3-d]pyrimidin-4-yl)-1H-pyrazol-1-yl]cyclobutyl}acetonitrile]
< 10 nM | >10 | N#CC[C@]1(n2cc(-c3ncnc4[nH]ccc34)cn2)C[C@H](N2CCC(Oc3cc(CCO)cc(C(F)(F)F)n3)CC2)C1 [Compound 26, {trans-3-(4-{[4-(2-hydroxyethyl)-6-(trifluoromethyl)pyridin-2-yl]oxy}piperidin-1-yl)-1-[4-(7H-pyrrolo[2,3-d]pyrimidin-4-yl)-1H-pyrazol-1-yl]cyclobutyl}acetonitrile]
